Experimental data published in patent publication US20260219259A1, “METHOD FOR QUANTIFYING INSULIN SECRETION CAPACITY IN HUMAN CELL” (JUNTENDO EDUCATIONAL FOUNDATION, priority 2023, published 2026).

Test system: Huh7 cells
Assay: Insulin production in Huh7 cells expressing Ngn3, Mafa and Pdx1, insulin quantified using HISCL HI-1000
Assay type: cell-based, human
Details: concentration of from 1 to 30 nM; FIG. 8
Procedure: The recombinant SW872 cells that express 3 genes Ngn3, Mafa, and Pdx1 used here were expanded by long-term culture, and the resulting cells were subjected to the same experiment as above. […] Accordingly, a liver-derived cell line Huh7 was infected with Sendai virus vectors (TOKIWA-Bio Inc.) that express 3 genes Ngn3, Mafa, and Pdx1, cultured in a differentiation medium for β cells for 24 hours, and then transfected with expression plasmids of human KLF9 gene and human UCN3 gene using Lipofectamine 3000, and the amount of insulin produced was measured 5 days later. The expression plasmids of human KLF9 gene and human UCN3 gene were prepared by PCR and In-Fusion ligation reaction in the same manner as the method described in Example 3(1) using primers shown in SEQ ID NOs: 65 and 66 and SEQ ID NOS: 69 and 70. pEBMulti-Hyg was used as a negative control, and pEBMulti-hIns was used as a positive control. […] Insulin was quantified using HISCL HI-1000 (Sysmex Corp.). […]
Human SW872 cells that produce hIns-HiBiT5 were infected with Sendai virus vectors that express 3 genes Ngn3, Mafa, and Pdx1 in the same manner as in Example 4, and cultured in a differentiation medium for β cells for 24 hours. […] The method for quantifying insulin was performed in the same manner as in Example 4. […]

For `CCCC(CCC)C(=O)O` [valproic acid], the “insulin production from the Huh7 cells” value was “promoted insulin production”.
